Assay results taken from patent US9649394B2, “Compositions and methods for in vivo imaging” (The General Hospital Corporation, priority 2010, dated 2017).
Read-outs that look alike come from different tables or passages of the source. Each block holds one molecule with its values, some of them ahead of it.

Experiments:
[1] = molecular target: T1, PARP1 (Homo sapiens, UniProt P09874); test: Colorimetric PARP1 activity assay (Trevigen), IC50 determination; type: biochemical
T1 construct: purchased Trevigen, Gaithersburg, Md
Description: A commercially available colorimetric assay (Trevigen, Gaithersburg, Md.) was used to measure PARP activity in vitro in the presence of inhibitors. […] All experiments were carried out in triplicate. […] All reaction mixtures were adjusted to a final volume of 50 μL and a maximum final concentration 0.4% DMSO in assay buffer. The remainder of the assay was performed according to the manufacturer's instructions. PARP activity was measured by absorbance at 450 nm in each well using a Safire 2 microplate reader (Tecan Group, Männedorf, Switzerland). IC50 values were calculated using Prism software (GraphPad, La Jolla, Calif.).
A commercially available colorimetric assay (Trevigen, Gaithersburg, Md.) was used to measure PARP activity in vitro in the presence of inhibitors. […] All experiments were carried out in triplicate. […] All reaction mixtures were adjusted to a final volume of 50 μL and a maximum final concentration 0.4% DMSO in assay buffer. The remainder of the assay was performed according to the manufacturer's instructions. PARP activity was measured by absorbance at 450 nm in each well using a Safire2 microplate reader. IC50 values were calculated using the Prism software package.

[2] = system: HT1080 cells; test: Life cell imaging, in vitro uptake and clearance kinetics; type: cell-based
Description: For in vitro kinetic studies, HT1080 cells were labeled with a 1 μM concentration of AZD2281 fluorophore conjugate in cell culture medium and imaged on an inverted Deltavision epifluorescence microscope using a 37° C. heated stage and 5% CO2 atmosphere for various times. After subtracting the background fluorescence, the data were fitted to an exponential association curve. […] Cells were washed twice in cell culture media and imaged continuously (BODIPYFL conjugate) or after various time points (BODIPY578 and BODIPY650). The loss in fluorescence was fitted to a biexponential decay curve.

[3] = system: HT-1080 cells expressing H2B-apple; test: Intravital imaging, window chamber mice with HT-1080 H2B-apple cells; type: in vivo
Description: For the in vivo studies, mice with window chambers were implanted with 1 million HT-1080 cells expressing H2B-apple fluorescence protein. 75 nmol of AZD2281-BODIPYFL were dissolved in 75 μL of 1:1:DMAC:solutol and 75 μL of PBS and injected via tail vein. Images of the vessels were taken using a 20× water immersion objective on a laser scanning confocal microscope while the mouse was anesthetized with isoflurane.

[4] = system: SKOV-3, MIA Paca2, A2780, Panc-1 tumors; test: Tumor versus muscle fluorescence uptake in Nu/Nu mice, excised tissues; type: in vivo; conditions: 75 nmol via tail vein, 45 minutes
Description: For ^18F-AZD2281 standardized uptake values, five Nu/Nu mice each received four subcutaneous injections containing SKOV-3, MIA Paca2, A2780, or Panc-1 cells in the flanks and shoulders (2.5×10^6 cells in 100 μL 70:30 PBS/BD matrigel per injection) (BD Biosciences, Bedford, Mass.). Tumors were allowed to grow for two weeks before imaging. 75 nmol of AZD2281-BODIPYFL were dissolved in 75 μL of 1:1:DMAC:solutol and 75 μL of PBS and injected via tail vein. The agent was allowed to circulate and clear for 45 minutes, before the mice were sacrificed, tumors and muscle tissue excised and the relative fluorescence uptake of tissues quantified against mice which were injected with just 1:1:DMAC:solutol.

[5] = system: PARP1/PARP2; test: Comparison of AZD2281-BODIPY FL uptake and PARP1/PARP2 expression in cell lines; type: cell-based; conditions: fixed cells, 20 minutes incubation
Description: RAW 264.7, Panc-1, MIA Paca2, A2780, OVCAR429, UCI 101, UCI 107, SKOV-3, OVCAR-3, and OV-90 cells (200 μL, 35,000 cells/mL) were each seeded in their respective growth medium on 96-well plates and allowed to attach for 48 hours. […] Cells were then fixed with paraformaldehyde (4% in PBS) and washed with ice cold PBS/0.1% Triton X-100/0.5% bovine serum albumin (3×200 μL, 3rd wash left for 30 min). Cells were incubated with anti-PARP-1/2 Rab (1:50; SCBT, Santa Cruz, Calif.) at 4° C. overnight. Cells were washed with PBS/0.1% Triton X-100 (3×200 μL) before stained with secondary IgG-Cy5 Gab (1:100; Millipore, Billerica, Mass.) for 3 h at 4° C. Cells were then washed with PBS (1×, 200 μL), stained with Hoechst (Invitrogen, Carlsbad, Calif.) and blue whole cell stain (Thermo Scientific, Waltham, Mass.) for 30 minutes at room temperature, and washed with PBS (3×, 200 μL) before imaging and quantification of the respective fluorescence signals.

[6] = system: MDA-MB-436 cells; test: AZD2281-TCO / Texas Red-Tz bioorthogonal reaction and imaging in live MDA-MB-436 cells; type: cell-based; conditions: sequential AZD2281-TCO (7)/Texas Red-Tz (8)
Description: (§1) Cells were then incubated with Texas Red-Tz (8) (25 μL, 20 μM) for 20 minutes (37° C.) before the medium was removed and cells were washed (1×, medium, 500 μL). […] Cells were washed with PBS (3×500 μL), fixed with paraformaldehyde (4% in PBS) and washed with PBS (3×500 μL, time between each wash=5 minutes). PBS was removed and cells mounted using Prolong Gold (Invitrogen, Carlsbad, Calif.) before imaging.
as §1, with “min). […]” for “minutes). PBS was removed and cells mounted using Prolong Gold (Invitrogen, Carlsbad, Calif.) before imaging.”
Cells were observed on a Nikon 80i (Nikon, Tokyo JP) microscope equipped with an ImagEM camera (Hammamatsu Photonics, Tokyo JP). […] For each image, both cell structures and nuclei structures have been obtained using the appropriate fluorescence filters and appropriate excitation signal levels to avoid collecting auto-fluorescence. […] Within each image and for each cell, the fluorescence signal for the total cell and the signal in the nuclear area was calculated using the corresponding mask as a spatial filter. […] The ratio of the fluorescent signal in the cytosol region over the signal in the nuclear region was then calculated. […]

[7] = system: MDA-MB-436 tumors; test: PET-CT imaging of MDA-MB-436 tumor-bearing mice, with and without AZD2281; type: in vivo; conditions: 1 mg AZD2281 BID, then re-injection of probe
Description: Non-tumor bearing Nu/Nu mice were injected with (6^18F) and used for organ distribution immediately after injection over a time period of 2 hours. Tumor-bearing mice received s.c. injections with 5×10^6 MDA-MB-436 cells (American Type Culture Collection) in Matrigel (BD Biosciences) into each flank and underwent imaging 7 days later (injection of (6^18F) and immediate imaging over a time period of 2 hours). All mice were anesthetized (isoflurane 1.5%; O2 2 L/min) during imaging with a gas delivery system integrated into a multimodal imaging cartridge. All animal experiments were approved by Massachusetts General Hospital's Institutional Review Committee.
Images were acquired on the Siemens Inveon PET-CT. Each PET acquisition was 120 minutes in duration. PET was reconstructed from 600 million coincidental 511 keV photon counts on a series of LSO (lutetium oxyorthosilicate) scintillating crystals. Counts were rebinned in 3D by registering photons spanning no more than 3 consecutive rings and reconstructed into sinograms using a high resolution Fourier Rebin algorithm. Sinograms also yielded a 3D mapping of positron signal using a 2D filtered back-projection algorithm and a Ramp filter with a Nyquist cut-off of 0.5. […] Data are expressed as standard uptake values (SUV), which normalizes activity measurements to body weight and injected activity. […]

[8] = system: A2780 tumors; test: Non-invasive monitoring of treatment response in tumor-bearing Nu/Nu mice (SUV); type: in vivo; conditions: treatment with Olaparib
Description: ^18F-AZD2281 was synthesized as described herein. Nu/Nu mice bearing either A2780 tumors (treatment response) or A2780, Paca2, Panc1 and SKOV3 (differential uptake) were injected with the hot probe (500-750 μCi) and imaged ˜1.5 hours thereafter. Treatment consisted of injection of 0.5-1.0 mg AZD2281 (Olaparib) 18 hours before imaging (ip, interperitoneal) or ˜1.5-3.5 hours before imaging (iv, intravenous). Uptake was determined non-invasively by drawing SUVs (Standard Uptake Values).

[9] = 1 μM, HT1080, exponential association fit
[10] = labeled at 1 μM for 1 hour, washed, biexponential decay fit

T1 sequence (P09874 whole entry): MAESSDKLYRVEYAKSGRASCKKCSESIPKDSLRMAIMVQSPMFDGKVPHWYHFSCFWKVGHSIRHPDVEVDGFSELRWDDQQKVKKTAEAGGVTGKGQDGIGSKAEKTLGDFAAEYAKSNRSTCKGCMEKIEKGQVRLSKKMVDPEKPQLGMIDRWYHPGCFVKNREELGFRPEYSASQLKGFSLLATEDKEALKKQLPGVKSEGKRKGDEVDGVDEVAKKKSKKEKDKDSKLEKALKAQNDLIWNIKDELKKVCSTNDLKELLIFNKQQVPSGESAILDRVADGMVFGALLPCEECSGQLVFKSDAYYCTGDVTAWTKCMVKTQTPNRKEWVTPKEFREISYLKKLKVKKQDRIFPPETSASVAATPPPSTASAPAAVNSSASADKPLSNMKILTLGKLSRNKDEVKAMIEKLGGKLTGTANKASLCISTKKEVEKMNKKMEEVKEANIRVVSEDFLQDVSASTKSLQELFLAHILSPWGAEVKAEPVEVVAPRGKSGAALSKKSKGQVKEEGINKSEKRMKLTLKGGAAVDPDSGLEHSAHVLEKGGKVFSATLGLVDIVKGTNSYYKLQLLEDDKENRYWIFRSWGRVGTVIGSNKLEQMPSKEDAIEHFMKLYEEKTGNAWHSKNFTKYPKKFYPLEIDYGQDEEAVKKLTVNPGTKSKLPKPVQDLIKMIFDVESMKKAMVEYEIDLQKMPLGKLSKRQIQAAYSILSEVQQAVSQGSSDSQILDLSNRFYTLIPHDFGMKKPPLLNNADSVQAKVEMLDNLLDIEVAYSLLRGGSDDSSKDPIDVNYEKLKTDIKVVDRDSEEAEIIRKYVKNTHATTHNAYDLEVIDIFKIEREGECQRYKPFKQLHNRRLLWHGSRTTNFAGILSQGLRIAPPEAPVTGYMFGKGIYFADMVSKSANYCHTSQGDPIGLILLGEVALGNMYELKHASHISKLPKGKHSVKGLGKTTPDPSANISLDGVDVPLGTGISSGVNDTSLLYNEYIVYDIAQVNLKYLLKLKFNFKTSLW

Structure (SMILES): O=C(CF)N1CCN(C(=O)c2cc(Cc3n[nH]c(=O)c4ccccc34)ccc2F)CC1 [17^19F]
IC50 [1]: 5.2 ± 1.1 nM

Structure (SMILES): Cc1cc(C)n2c1C=C1C=CC(CCC(=O)N3CCN(C(=O)c4cc(Cc5n[nH]c(=O)c6ccccc56)ccc4F)CC3)=[N+]1[B-]2(F)F [AZD2281-BODIPY FL]
Uptake, Nucleus [2, 9]: Nucleus = 1.1 min | Uptake, Perinuclear [2, 9]: Perinuclear = 1.2 min | Clearance (weighted), Nucleus [2, 10]: Nucleus = slow | Clearance (weighted), Perinuclear [2, 10]: Perinuclear = 1.7 min | time after which non-specific uptake cleared, revealing nuclear uptake ([3]; 75 nmol via tail vein): 1 h | distribution in tumor after iv injection ([3]; first in vascular system, then tumor cells): concentrates in each and every tumor cell of the tumor | uptake in muscle compared to tumor tissues [4]: very little of the compound gets taken up by muscle cells compared to the tumor tissues | cellular localization [5]: localizes with the nucleus

IC50 ([1]; Example 1, 0.5 units PARP HSA, 10 minutes, read-out: IC50): 10.1 ± 1.3 nM
Structure (SMILES): O=C(CCCC(=O)N1CCN(C(=O)c2cc(Cc3n[nH]c(=O)c4ccccc34)ccc2F)CC1)NCCNC(=O)C1C[C@@H]2C=C[C@H]1C2 (stereo partly shown) [AZD2281-NOB]

Structure (SMILES): O=C(CCCC(=O)N1CCN(C(=O)c2cc(Cc3n[nH]c(=O)c4ccccc34)ccc2F)CC1)NCCNC(=O)OC1CC/C=C/CCC1 (stereo not shown) [AZD2281-TCO]
spatial correlation of Texas Red staining with anti-PARP1 Mab staining [6]: excellent spatial correlation

Structure (SMILES): O=C(c1cc(Cc2n[nH]c(=O)c3ccccc23)ccc1F)N1CCN(C(=O)C2CC2)CC1 [AZD2281]
effect on uptake of 18F-AZD2281 into tumors [7]: inhibition of the probe s uptake into the tumors

Structure (SMILES): OC[C@H]1O[C@@H](O)[C@H]([18F])[C@@H](O)[C@@H]1O [FDG]
ability to distinguish between treated and untreated tumors (tumor/muscle signal intensity) [8]: not able
